System: Tandem reporter (RFP-GFP-LC3) HeLa cells
Experiment: Tandem reporter (RFP-GFP-LC3) assay, % of RFP puncta that are GFP positive
Type: cell-based
Details: imaged after 12 hours
Method: FIG. 13A-E. Validation of novel autophagy inhibitors with an independent measure of autophagic flux. (FIG. 13A) Tandem reporter (RFP-GFP-LC3) HeLa cells treated with the indicated compounds and imaged after 12 hours in RFP (middle panels) GFP (bottom panels). […] Concentrations used correspond to the lowest dose resulting in the maximum degree of colocalization between GFP and RFP puncta as calculated in (B). These are: 3 nM Bafilomycin, 1 uM Quinacrine, 50 uM 245536, and 100 uM of 254522, 45808, 234794, and 237373. (Scale bar: 50 μm) (FIG. 13B) The percentage of RFP positive puncta that are also GFP positive in tandem reporter HeLa cells was analyzed using Cell Profiler. First GFP (1a) and RFP (1b) images of the same field of cells are uploaded into Cell Profiler. Using the GFP images, nuclei are identified (2a-green outlines) and a nuclear mask (2b) is generated. […] Cellular boundries are identified (3a-purple outlines) and a cellular mask is created. […] Only puncta within this mask will be evaluated in subsequent steps. […] (FIG. 13D) Tandem reporter HeLa cells were imaged once prior to drug treatment and then treated with the lowest dose that produced the maximum response as calculated in (FIG. 13C) and imaged immediately after. […] Each point is calculated by taking the mean % of (GFP+/RFP+ puncta)/(RFP+) from 8 technical replicates. […]

CO/C1=C\C(C)=C\[C@@H](C)[C@@H](O)[C@@H](C)C/C(C)=C/C=C/[C@H](OC)[C@@H]([C@@H](C)[C@@H](O)[C@H](C)[C@@]2(O)C[C@@H](O)[C@H](C)[C@@H](C(C)C)O2)OC1=O [Bafilomycin-A1, bafilomycin-A1]
Lowest dose resulting in the maximum degree of colocalization between GFP and RFP puncta: 3 nM

Source: patent US10928381B2, “In vitro methods of monitoring autophagy in a human cell using a photoconvertable fluorescent protein linked biomarker” (The Regents of the University of Michigan, priority 2018, dated 2021)
